Results reported in ChEMBL document CHEMBL4811279, “N-Substituted pyrrolopyrimidines and purines as p90 ribosomal S6 protein kinase-2 (RSK2) inhibitors” (Bioorg Med Chem, 2021).

Each molecule was assayed against Ribosomal protein S6 kinase alpha-3 (Homo sapiens) (UniProt P51812) (assay: Inhibition of RSK2 (unknown origin) using Ulight-rpS6 as substrate at 10 uM incubated for 1 hr in presence of ATP by TR FRET assay).
Ribosomal protein S6 kinase alpha-3 (Homo sapiens), sequence (P51812 whole entry): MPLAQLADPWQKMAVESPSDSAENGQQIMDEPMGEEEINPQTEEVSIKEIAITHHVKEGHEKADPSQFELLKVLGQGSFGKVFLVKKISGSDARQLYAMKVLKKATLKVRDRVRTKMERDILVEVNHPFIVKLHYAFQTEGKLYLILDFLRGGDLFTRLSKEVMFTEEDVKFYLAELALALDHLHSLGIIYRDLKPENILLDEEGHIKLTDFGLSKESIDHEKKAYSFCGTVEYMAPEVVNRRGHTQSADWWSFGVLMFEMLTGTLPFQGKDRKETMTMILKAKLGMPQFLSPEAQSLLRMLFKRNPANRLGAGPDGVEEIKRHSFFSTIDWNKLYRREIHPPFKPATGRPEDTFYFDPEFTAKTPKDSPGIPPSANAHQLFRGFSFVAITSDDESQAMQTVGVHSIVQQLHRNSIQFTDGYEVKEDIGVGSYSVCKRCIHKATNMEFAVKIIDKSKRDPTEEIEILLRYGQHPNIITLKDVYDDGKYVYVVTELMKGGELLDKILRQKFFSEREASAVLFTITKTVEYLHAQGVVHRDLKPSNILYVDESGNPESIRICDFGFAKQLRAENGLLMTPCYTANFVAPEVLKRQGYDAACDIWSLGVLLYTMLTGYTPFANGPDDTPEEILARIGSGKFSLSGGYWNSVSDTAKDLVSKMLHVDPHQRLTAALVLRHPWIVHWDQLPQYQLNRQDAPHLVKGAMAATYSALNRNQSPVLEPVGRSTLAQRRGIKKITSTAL
With `Oc1c(F)cc(Nc2ncc3ncn(-c4ccc(-c5ccccc5)cc4)c3n2)cc1F` the inhibition was 49%.
`Oc1c(F)cc(Nc2ncc3ncn(-c4ccc(OCc5ccccc5)cc4)c3n2)cc1F` showed an inhibition of 42%.
Molecule `Oc1c(F)cc(Nc2ncc3nc[nH]c3n2)cc1F` has an inhibition of 67%.
In the case of `Oc1c(F)cc(Nc2ncc3cc[nH]c3n2)cc1F`, the inhibition was 77%.
`Oc1c(F)cc(Nc2ncc3ncn(-c4cccc(OCc5ccccc5)c4)c3n2)cc1F` gave an inhibition of 63%.
